Where two headings read alike, the source gives them in different places.
Columns and labels:
Staphylococcus aureus [1] = assay: Microbicidal activity of the myeloperoxidase system (p-MPO, glucose oxidase, glucose) with amino acids in the presence of blood, CFU plate counts; synergy determination from these CFU; assay type: cell-based; conditions: for Average Viability CFU/ml 60 min / Log 10 (CFU + 1) Survivors 60 min / Log Reduction 60 min: MPO 38 U/ml, GO 33.3 U/ml, blood; for Average Viability CFU/ml 50 min / Log Reduction 50 min: MPO 4.7 U/ml, GO 4.2 U/ml
Outline: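 Staphylococcus aureus grown 24 hours in TSB at 35° C was washed in saline and added at a final 2-3×10^7 CFU per mL. The bacteria were mixed in 1 mL reactions with porcine myeloperoxidase, glucose oxidase, amino acids, 150 mM sodium chloride and 3% venous whole blood. Adding glucose to 150 mM started killing. After catalase addition, survivors were counted by serial dilution plating on TSA at 37° C for 24 hours.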

Staphylococcus aureus [2] = assay: Control: microbicidal activity of the amino acid or analogue alone (no glucose, MPO, glucose oxidase) in the presence of blood; assay type: cell-based; conditions: MPO 0, GO 0, no glucose, blood; for log reduction at 5000 µM: Staphylococcus aureus, 1 h, read-out: Log Reduction 60 min
Source text: As a control to determine the microbicidal activity of the amino acids alone, the foregoing procedure was followed without replication, except in the absence of glucose, MPO, and glucose oxidase.

[3] = Table 2, amino acid 5 mM (none: 0 mM)
[4] = amino acid alone 5 mM, without replication
[5] = MPO 100 μg/mL, AA 20 mM, 30 min
[6] = MPO 100 μg/mL, AA 20 mM, 60 min
[7] = Table 10, single amino acid 2.5 mM, in the presence of blood
[8] = Table 11, single amino acid 2.5 mM, in the presence of blood
[9] = Table 14, single amino acid 2.5 mM, in the presence of blood
[10] = Table 7, amino acid analogue 5 mM
[11] = Table 13, single amino acid 2.5 mM, in the presence of blood

Structure (SMILES): CSCC[C@H](N)C(=O)O [L-Methionine]
- Average Viability CFU/ml 60 min (Staphylococcus aureus [1]; [3]): 6600000 CFU/ml
- Log 10 (CFU + 1) Survivors 60 min (Staphylococcus aureus [1]; [3]): 6.8
- Log Reduction 60 min (Staphylococcus aureus [1]; [3]): 0.6
- log reduction at 5000 µM (Staphylococcus aureus [2]; [4]): 0.1
- Average Viability CFU/ml 60 min (Staphylococcus aureus [2]; [4]): 19800000 CFU/ml

Structure (SMILES): N[C@@H](Cc1ccccc1)C(=O)O [L-Phenylalanine]
- Log 10 (CFU + 1) Survivors (Staphylococcus aureus [1]; MPO 25 μg/mL, AA 5 mM, 30 min): 7.1
- Log 10 (CFU + 1) Survivors (Staphylococcus aureus [1]; MPO 25 μg/mL, AA 5 mM, 60 min): 0.0
- Log 10 (CFU + 1) Survivors (Staphylococcus aureus [1]; MPO 25 μg/mL, AA […], 30 min): 7.0
- Log 10 (CFU + 1) Survivors (Staphylococcus aureus [1]; MPO 25 μg/mL, AA […], 60 min): 4.9
- Log 10 (CFU + 1) Survivors (Staphylococcus aureus [1]; MPO 100 μg/mL, AA 5 mM, 30 min): 0.0
- Log 10 (CFU + 1) Survivors (Staphylococcus aureus [1]; MPO 100 μg/mL, AA 5 mM, 60 min): 0.0
- Log 10 (CFU + 1) Survivors (Staphylococcus aureus [1]; [5]): 0.0
- Log 10 (CFU + 1) Survivors (Staphylococcus aureus [1]; [6]): 0.0
- Average Viability CFU/ml 60 min (Staphylococcus aureus [1]; [3]): 0 CFU/ml
- Log 10 (CFU + 1) Survivors 60 min (Staphylococcus aureus [1]; [3]): 0.0
- Log Reduction 60 min (Staphylococcus aureus [1]; [3]): 7.4
- Average Viability CFU/ml 50 min (Staphylococcus aureus [1]; [7]): 10550000 CFU/ml
- Log Reduction 50 min (Staphylococcus aureus [1]; [7]): 0.4
- Average Viability CFU/ml 50 min (Staphylococcus aureus [1]; [8]): 11100000 CFU/ml
- Log Reduction 50 min (Staphylococcus aureus [1]; [8]): 0.4
- Average Viability CFU/ml 50 min (Staphylococcus aureus [1]; [9]): 12050000 CFU/ml
- Log Reduction 50 min (Staphylococcus aureus [1]; [9]): 0.3
- Average Viability CFU/ml 50 min (Staphylococcus aureus [1]; Table 19, amino acid 3.5 mM): 11200000 CFU/ml
- Log Reduction 50 min (Staphylococcus aureus [1]; Table 19, amino acid 3.5 mM): 0.4
- log reduction at 5000 µM (Staphylococcus aureus [2]; [4]): 0
- Average Viability CFU/ml 60 min (Staphylococcus aureus [2]; [4]): 22400000 CFU/ml

Structure (SMILES): COC(=O)[C@@H]1CCCN1.Cl [L-Proline methyl ester hydrochloride]
- Average Viability CFU/ml 60 min (Staphylococcus aureus [1]; [10]): 0 CFU/ml
- Log Reduction 60 min (Staphylococcus aureus [1]; [10]): 7.4
- log reduction at 5000 µM (Staphylococcus aureus [2]; amino acid analogue alone 5 mM): 0
- Average Viability CFU/ml 60 min (Staphylococcus aureus [2]; amino acid analogue alone 5 mM): 23200000 CFU/ml

Structure (SMILES): O=C(O)[C@@H]1CCCN1 [L-Proline]
- Log 10 (CFU + 1) Survivors (Staphylococcus aureus [1]; MPO 25 μg/mL, AA 5 mM, 30 min): 7.1
- Log 10 (CFU + 1) Survivors (Staphylococcus aureus [1]; MPO 25 μg/mL, AA 5 mM, 60 min): 3.9
- Log 10 (CFU + 1) Survivors (Staphylococcus aureus [1]; MPO 25 μg/mL, AA […], 30 min): 7.0
- Log 10 (CFU + 1) Survivors (Staphylococcus aureus [1]; MPO 25 μg/mL, AA […], 60 min): 6.8
- Log 10 (CFU + 1) Survivors (Staphylococcus aureus [1]; MPO 100 μg/mL, AA 5 mM, 30 min): 4.9
- Log 10 (CFU + 1) Survivors (Staphylococcus aureus [1]; MPO 100 μg/mL, AA 5 mM, 60 min): 0.0
- Log 10 (CFU + 1) Survivors (Staphylococcus aureus [1]; [5]): 5.8
- Log 10 (CFU + 1) Survivors (Staphylococcus aureus [1]; [6]): 0.0
- Average Viability CFU/ml 60 min (Staphylococcus aureus [1]; [3]): 4850 CFU/ml
- Log 10 (CFU + 1) Survivors 60 min (Staphylococcus aureus [1]; [3]): 3.7
- Log Reduction 60 min (Staphylococcus aureus [1]; [3]): 3.7
- Average Viability CFU/ml 50 min (Staphylococcus aureus [1]; [7]): 1235000 CFU/ml
- Log Reduction 50 min (Staphylococcus aureus [1]; [7]): 1.3
- Average Viability CFU/ml 50 min (Staphylococcus aureus [1]; [11]): 1500000 CFU/ml
- Log Reduction 50 min (Staphylococcus aureus [1]; [11]): 1.2
- Average Viability CFU/ml 50 min (Staphylococcus aureus [1]; [9]): 1835000 CFU/ml
- Log Reduction 50 min (Staphylococcus aureus [1]; [9]): 1.2
- log reduction at 5000 µM (Staphylococcus aureus [2]; [4]): 0
- Average Viability CFU/ml 60 min (Staphylococcus aureus [2]; [4]): 21600000 CFU/ml
